The record followed here is PMC3986359, “New Cholinesterase Inhibitory Constituents from Lonicera quinquelocularis” (PLoS ONE, 2014).

Each structure is given as a SMILES string. Read-outs that look alike come from different tables or passages of the source.

For assay [1], the target named is T1, butyrylcholinesterase (horse-serum E.C 3.1.1.8) (Equus caballus, UniProt P81908).
T1 construct: butyrylcholinesterase (horse-serum E.C 3.1.1.8); purchased Sigma, Pakistan; host or cells: horse serum
Nature of the assay: biochemical. The format is biochemical. Particulars: for BChE inhibition profile (in words): qualitative statement. The method, then:
(§1) All other chemicals were of analytical grade and were used as such without further purification. Acetylcholinesterase (AChE) and butyrylcholinesterase (BChE) inhibiting activities were measured according to a modified spectrophotometric method used by Ellman et al.. Protocol and assay conditions were the same as described by Rocha et al..
(§2) The Acetylthiocholine iodide and butyrylthiocholine chloride were used as substrates for investigation of acetylcholinesterase and butyrylcholinesterase assays, respectively. The 5,5′-Dithiobis[2-nitrobenzoic-acid] (DTNB) was used for the measurement of cholinesterase activity. The 0.2 mM DTNB in 62 mM sodium phosphate buffer (pH 8.0, 880 µL), test compound solution (40 µL) and acetylcholinesterase or butyrylcholinesterase solution (40 µL) were mixed and incubated for 15 minutes (25°C). The reaction was then initiated by the addition of acetylthiocholine or butyrylthiocholine (40 µL), respectively. […] All the reactions were performed in triplicate using a BMS spectrophotometer (USA). […] The final concentration of DMSO in the reaction mixture was maintained at 6%.

Assay [2] concerns the target T2, Acetylcholinesterase (EC 3.1.1.7) (Homo sapiens, UniProt P22303).
T2 construct: purchased Sigma, Pakistan
Nature of the assay: biochemical. Particulars: for AChE inhibition profile (in words): qualitative statement; for IC50: read-out: AChE ± SEM (IC50). It counts as biochemical. The protocol: as §1, §2

Where [3] appears, read: acetylthiocholine iodide substrate, DTNB, pH 8.0, 25°C, 412 nm, value ± SEM.
[4] abbreviates: butyrylthiocholine chloride substrate, DTNB, pH 8.0, 25°C, 412 nm, value ± SEM, read-out: BChE ± SEM (IC50).

T2 sequence (P22303 32-614): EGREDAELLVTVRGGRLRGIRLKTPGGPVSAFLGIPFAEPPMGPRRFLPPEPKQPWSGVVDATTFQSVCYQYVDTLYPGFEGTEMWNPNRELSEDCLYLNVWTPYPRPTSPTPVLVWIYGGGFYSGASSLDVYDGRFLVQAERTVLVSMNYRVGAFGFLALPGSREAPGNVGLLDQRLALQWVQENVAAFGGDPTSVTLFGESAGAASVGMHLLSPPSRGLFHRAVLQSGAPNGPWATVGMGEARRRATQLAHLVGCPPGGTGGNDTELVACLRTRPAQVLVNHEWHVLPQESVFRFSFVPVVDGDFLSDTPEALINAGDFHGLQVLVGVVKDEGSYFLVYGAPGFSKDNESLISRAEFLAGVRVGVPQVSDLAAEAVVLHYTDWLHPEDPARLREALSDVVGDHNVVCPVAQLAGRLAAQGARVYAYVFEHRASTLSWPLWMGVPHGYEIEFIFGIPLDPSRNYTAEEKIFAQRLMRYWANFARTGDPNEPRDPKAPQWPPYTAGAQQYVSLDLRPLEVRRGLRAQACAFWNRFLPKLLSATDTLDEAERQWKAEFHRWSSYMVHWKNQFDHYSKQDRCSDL
T1 sequence (P81908 whole entry): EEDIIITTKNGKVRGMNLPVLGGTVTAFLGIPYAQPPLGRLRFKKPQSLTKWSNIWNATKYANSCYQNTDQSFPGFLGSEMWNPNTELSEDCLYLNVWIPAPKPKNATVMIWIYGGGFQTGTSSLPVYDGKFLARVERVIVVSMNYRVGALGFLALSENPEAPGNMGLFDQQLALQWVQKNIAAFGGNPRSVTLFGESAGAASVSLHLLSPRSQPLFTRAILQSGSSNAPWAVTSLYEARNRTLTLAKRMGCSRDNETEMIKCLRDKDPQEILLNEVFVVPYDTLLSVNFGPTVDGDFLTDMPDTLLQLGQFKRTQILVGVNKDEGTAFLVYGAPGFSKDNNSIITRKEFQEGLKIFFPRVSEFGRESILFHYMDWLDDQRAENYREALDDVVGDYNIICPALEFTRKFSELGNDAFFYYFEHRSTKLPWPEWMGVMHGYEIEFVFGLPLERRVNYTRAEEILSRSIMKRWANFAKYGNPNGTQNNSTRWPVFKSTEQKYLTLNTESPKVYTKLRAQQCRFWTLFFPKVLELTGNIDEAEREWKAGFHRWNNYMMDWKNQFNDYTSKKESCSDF

For `CCCCC(CC)COC(=O)c1ccccc1C(=O)OCC(CC)CCCC` (stereo not shown) [Compound 1, bis (2-ethylhexyl phthalate], in assay [1] (butyrylthiocholine chloride substrate, DTNB, pH 8.0, 25°C, 412 nm, value ± SEM), the “BChE ± SEM (IC50)” value is on record as “Nil”. For the same compound, in assay [1], the “BChE inhibition profile (in words)” value was “inactive”. In assay [2] (setting [3]), the “AChE ± SEM (IC50)” value is reported as “Nil”. In assay [2], the “AChE inhibition profile (in words)” value was “inactive”.

On to `CCCCCCCCOC(=O)c1ccccc1C(=O)OCCCCCCCC` [Compound 2, dioctyl phthalate], for which, in assay [1], the half-maximal inhibitory concentration (IC50) came to 20.12 ± 0.079 µM and the “BChE inhibition profile (in words)” value was “weak inhibition profile”. Moreover, the 50% inhibitory concentration (IC50) in assay [2] (setting [3]) turned out to be 8.74 ± 0.07 µM. Also, the “AChE inhibition profile (in words)” value in assay [2] is given as “weak inhibition profile”.

As to `CCC(CCC(C)CCOC(C)=O)COC(=O)c1ccccc1C(=O)OCC(CC)CCC(C)CCOC(C)=O` (stereo not shown) [Compound 3, Bis (7-acetoxy-2-ethyl-5-methylheptyl) phthalate], the figures for the IC50 in assay [1] (setting [4]) and in assay [2] (setting [3]) were 5.98 ± 0.079 µM and 1.65 ± 0.03 µM, respectively.

Turning to `CCOc1c(CC=C(C)C)cc(C(=O)OCC(C)(C)C)cc1CC=C(C)C` [Compound 4, Neopentyl-4-ethoxy-3,5-bis [3-methyl-2-butenyl] benzoate], the concentration for half-maximal inhibition (IC50) is 14.76 ± 0.087 µM in assay [1] (setting [4]) and 5.27 ± 0.04 µM in assay [2] (setting [3]). For the same compound, the “BChE inhibition profile (in words)” value in assay [1] is on record as “weak inhibition profile”. Further, the “AChE inhibition profile (in words)” value in assay [2] was “weak inhibition profile”.

As for `CC(C)=CCc1cc(C(=O)OCC(C)(C)C)cc(CC=C(C)C)c1O` [Compound 5, Neopentyl-4-hydroxy-3,5-bis [3-methyl-2-butenyl] benzoate], the IC50 in assay [1] (setting [4]) turned out to be 9.84 ± 0.037 µM; in assay [2] (setting [3]), 3.43 ± 0.02 µM.
